Tests used:
[1] = system: K562; experiment: Calcein AM cytotoxicity assay; format: cell-based; details: Homo sapiens, 72 hrs
Excerpt: (§1) One of the parameters used as the base for cytotoxic analysis is metabolic activity of viable cells. Microtiter assay, which uses the Calcein AM, is now widely used to quantify cell proliferation and cytotoxicity. The quantity of […] Calcein AM corresponds to the number of viable cells in culture. The cell lines of breast cancer (MCF-7), human erythromleukemia (K562), BJ human fibroblast cells (BJ) and human keratinocyte cell line (HaCaT) were used for routine screening of cytotoxicity of the compounds. The cells were maintened in Nunc/Corning 80 cm^2 plastic bottles and grown in media for cell culture (DMEM containing 5 g/l of glucose, 2 mM of glutamin, 100 U/ml of penicilin, 100 μg/ml of streptomycin, 10% of fetal bovine serum and sodium hydrogencarbonate). Cell suspensions were diluted according to cell types and according to expected final cell density (10^4 of cells per well according to characteristics of cell growth), pippeted 80 μl of cell suspension on 96-well microtiter plates. Innoculates were stabilized by 24 hrs preincubation at 37° C. in CO2. Particular concentrations of tested compounds were added in time zero as 20 μl aliquotto wells of microtiter plates. Usually, the compounds were diluted into six concentrations in four-fold dilution series. In routine testing, the highest well concentration was 166.7 μM, of change dependent on the substance. All drug concentrations were examined in duplicates. The incubation of cells with tested derivatives lasted 72 hrs at 37° C., 100% humidity and in the atmosphere of CO2. At the end of the incubation period, the cells were tested and analysed according to the addition of Calcein AM (Molecular probes) solution and the incubation lasted for next 1 hour. Fluorescence (FD) was measured using Labsystem FIA reader Fluorskan Ascent (Microsystems). The survival of tumor cells (The tumor cell survival-TCS) was counted according to equation: […](FDwell with derivative/FDcontrol well)×100%. The value of GI50, that is equal to the concentration of compound at which 50% of tumour cells are terminated. To evaluate the antitumor activity was tested toxicity of new derivatives on panel of cell lines of different histogenetic and species origin (Tab. 6, G150 concentration given in μM). […] Effective derivatives killed tumor cells in concentrations close to 0.1 to 50. None of the newly prepared compounds only reached the value.

[2] = system: HaCaT; experiment: Calcein AM cytotoxicity assay; format: cell-based; details: Homo sapiens, 72 hrs
Excerpt: as §1

[3] = system: BJ human fibroblast cells; experiment: Calcein AM cytotoxicity assay; format: cell-based; details: 72 hrs
Excerpt: as §1

[4] = system: MCF-7; experiment: Calcein AM cytotoxicity assay; format: cell-based; details: Homo sapiens, MCF7, 72 hrs
Excerpt: as §1

[5] = system: skin fibroblasts BJ and keratinocytes HaCaT; experiment: MTT in vitro cytotoxicity test for skin cells; format: cell-based; details: Homo sapiens; 72 hour treatment; table does not say which cell line (BJ, HaCaT)
Description: MTT assay is a standard test of toxicity based on photometric measurement of the ability of metabolically active cells to reduce MTT (3-(4,5-dimethylthiazol-2-yl)-2,5-diphenyltetrazolium bromide). Using the assay, the effects of 72 hour treatments with several concentrations of the compounds (sixfold dilution, maximal concentration=50 microM) on viability of skin fibroblasts BJ and keratinocytes HaCaT were evaluated. About 5,000 cells were seeded per well of a 96-well plate 24 hours before the treatment. DMSO vehiculum was used as a negative control. After 72 hour treatment, new medium with MTT (Sigma, M2128) was added to a final concentration of 0.5 mg/ml. After 3 hours, medium was removed and resulting formazan in the cells was dissolved in DMSO. The absorbance was measured at 570 nm (640 nm reference wavelength). The IC50 values were calculated from the dose-response curves. 6-furfurylaminopurine riboside was used as positive controls.

[6] = system: Triticum aestivum cv. Hereward leaf segments; experiment: Senescence bioassay on detached wheat leaf segments (chlorophyll retention); details: for maximum effective concentration: 96 h in the dark; for activity (%) [10^−4 mol · l^−1 BAP = 100%]: at maximum effective concentration
Description: Seeds of winter wheat, Triticum aestivum cv. Hereward, were washed under running water for 24 hours and then sown on vermiculite soaked with Knop's solution. They were placed in the growth chamber at 25° C. with a 16/8 h light period at […]. After 7 days, the first leaf was fully developed and the second leaf had started to grow. A tip section of the first leaf, approximately 35 mm long, was removed from 5 seedlings and trimmed slightly to a combined weight of 100 mg. The basal ends of the five leaf tips were placed in the wells of a microtiter polystyrene plate containing 150 μL of the tested derivative solution each. The entire plate was inserted into a plastic box lined with paper tissues soaked in distilled water to prevent leaf sections from drying out. After 96 h incubation in the dark at 25° C., the leaves were removed and chlorophyll extracted by heating at 80° C. for 10 min in 5 mL of 80% ethanol (v/v). The sample volume was then restored to 5 mL by the addition of 80% ethanol (v/v). The absorbance of the extract was recorded at 665 nm. In addition, chlorophyll extracts from fresh leaves and leaf tips incubated in deionised water were measured. The results are means of five replicates and the entire test was repeated twice. […] The compounds to be tested were dissolved in dimethylsulfoxide (DMSO) and the solution brought up to 10^−3 M with distilled water. […] The activity obtained for 10^−4 M of BAP was postulated as 100%. Kinetin was used as the second standard. Newly prepared compounds generally exceeded the efficiency of standard (BAP) by 10% of its activity (Tab. 5).

Compound | GI50 [1] [µM] | GI50 [2] [µM] | GI50 [3] [µM] | GI50 [4] [µM] | IC50 [5] [µM] | maximum effective concentration [6] | activity (%) [10^−4 mol · l^−1 BAP = 100%] [6] [%]
c1nc(NCC2CCCO2)c2ncn(C3CCCO3)c2n1 (stereo not drawn) [Compound 1, 6-(tetrahydrofuran-2-ylmethylamino)-9-(tetrahydrofuran-2-yl)purine] | > 100 | > 100 | > 100 | > 100 | > 100 | 10^−4 mol · l^−1 | 125 ± 9
c1csc(CNc2ncnc3c2ncn3C2CCCO2)c1 (stereo not drawn) [Compound 9, 6-(thiophen-2-ylmethylamino)-9-(tetrahydrofuran-2-yl)purine] | > 100 | > 100 | > 100 | > 100 | > 100 | 10^−4 mol · l^−1 | 112 ± 5
Clc1nc(NCc2ccco2)c2ncn(C3CCCO3)c2n1 (stereo not drawn) [Compound 15, 2-chloro-6-furfurylamino-9-(tetrahydrofuran-2-yl)purine] | – | – | – | – | > 100 | – | –
Clc1nc(NCC2CCCO2)c2ncn(C3CCCO3)c2n1 (stereo not drawn) [Compound 20, 2-chloro-6-(tetrahydrofuran-2-ylmethylamino)-9-(tetrahydrofuran-2-yl)purine] | > 100 | > 100 | > 100 | > 100 | – | 10^−4 mol · l^−1 | 127 ± 5
